According to patent publication US12492210B2, “Tricyclic compounds and their use” (HUTCHISON MEDIPHARMA LIMITED, priority 2019, dated 2025):

Columns and labels:
[1] = system: p-RSK (Thr359) in colo205 cells; assay: p-RSK (Thr359) Acumen Assay in Colo205; format: cell-based; conditions: Homo sapiens, COLO 205, 1 hour compound incubation, read-out: Example 19 IC50
Procedure: Example 19: p-RSK (Thr359) Acumen Assay in Colo205
• Phospho-p90RSK (Thr359) (D1E9) Rabbit mAb: cell signal, #8753 • Alexa Fluor® 488 donkey anti-rabbit IgG: invitrogen, #A-21206 • Propidium Iodide: Sigma, #p4170 • 4% Paraformaldehyde: SCRC, #DF021 • 10% Triton X-100: PIERCE, #28314 • 96-well plate (black with clear bottom): BD, #354640 • Acumen® eX3 (A Multilaser Microplate Cytometer For Enhanced High Content Screening): TTP LabTech 3. Acumen Assay Protocol • Seed 4000 cells in 100 μl 10% FBS/well into 96-well plate, incubate at 37° C., 5% CO2, overnight. • Dilute the compound to 3, 1, 0.33, 0.11, 0.037, 0.012, 0.004, 0.001 μM, keeping the DMSO concentration at 5%. Add 10 μl of diluted compound per well and incubate at 37° C., 5% CO2 for 1 hour. • Add 100 μl of 4% pre-warmed Paraformaldehyde (2% final), and incubate for 45 min at room temperature. • Remove paraformaldehyde solutions. Add 100 μl of ice-cold 0.1% Triton to fixed cells at room temperature for 30 min. • Wash twice with 150 μl PBS and incubate with 100 μl blocking buffer (1% BSA, in PBS) for 2˜3 hours at room temperature, seal the plate. • Wash once with PBS and incubate with 35 μl p-RSK (Thr359) (1:1000 dilution) overnight at 4° C. Seal the plate. • Wash twice with PBS and incubate for 1.5 hours at room temperature with 35 μl of Alexa Fluor® 488 donkey anti-rabbit IgG at a 1:1,000 dilution in antibody dilution buffer (0.1% BSA, in PBS). Cover plate in foil to keep out of light. • Wash twice with 150 μl PBS. Add 35 μl of 1.5 μM Propidium Iodide stock to each well to determine cell number, seal the plate. • Incubate at room temperature for 30 min. Load the plate into the Acumen Explorer and scan with the appropriate instrument settings. 4. Data Analysis
[formula] Note: • Percentagecompound well represents the positive percentage of cells treated by compound. • Percentagemin well represents the positive percentage of cells treated with 3 uM GDC0994. • Percentagemax well represents the positive percentage of cells without compounds treatment. 5. IC50 Value: determine IC50 with add-in software for Microsoft Excel, XLfit™ (version 2.0) from ID Business Solutions (Guildford, UK)

[2] = molecular target: T1, MAPK1(ERK2) enzyme (Homo sapiens, UniProt P28482); assay: Z-Lyte Kinase Assay of ERK2; format: biochemical; conditions: read-out: Example 18 IC50
T1 construct: purchased Invitrogen PV3313
Procedure: Example 18: Z-Lyte Kinase Assay of ERK2
1. Materials and Reagents:
2. Reaction Steps: Plate Map
3. Solution Preparation • 1) 1.33× Kinase Buffer: Dilute 5× Kinase Buffer to 1.33× with ddH2O • 2) 4× Test Compounds: Serially dilute the test compounds to 4 folds of the concentrations desired, keeping the DMSO concentration at 8%. The final concentrations are 1, 0.33, 0.11, 0.037, 0.012, 0.004, 0.0014, 0.00046 μM, and the final concentration of DMSO is 2%. • 3) Kinase/Peptide Mixture (P/K solution): Prepare Kinase/Peptide Mixture by diluting the kinase to 0.6 μg/ml and the Z-LYTE™ Ser/Thr3 peptide to 4 μM in 1.33× Kinase Buffer. Mix gently by pipetting. • 4) Phospho-peptide Solution (PP solution): Add 0.4 μl of Z-LYTE™ Ser/Thr3 Phospho-peptide to 99.6 μl of 1.33× Kinase Buffer. • 5) ATP Solution: Prepare ATP Solution by diluting the 10 mM of ATP in 1.33× Kinase Buffer to 100 μM. • 6) Development Solution: Dilute Development Reagent A with Development Buffer as 1:1024. 4. Reaction • 1) Kinase reaction (10 μl of Volume) • a. In a 384-well plate, add 2.5 μl of 4× test Cpds to each well except C1, C2, C3 wells Add 2.5 μl of 8% DMSO to C1, C2, C3 wells • b. Put the plate on ice • c. Add 5 μl of P/K mixture to each test Cpd wells and C1, C2 wells • d. Add 5 μl of PP Solution to C3 well • e. Add 2.5 μl of 1.33× kinase buffer to C1 and C3 wells • f. Add 2.5 μl of 4×ATP Solution to each test Cpd wells and C2 well, respectively. Shake the plate for 30 Sec and centrifuge (1500 rpm, 1 min) • g. Seal the plate to protect from the light and incubate the plate for 1 hour at RT (25-30° C.) • 2) Development reaction • a. Add 5 μl of the Development solution to all wells • b. Shake the plate for 30 sec and centrifuge (1500 rpm, 1 min) • c. Seal the plate to protect from the light and incubate the plate for 1 hour at RT (25-30° C.) • 3) Stop and read • a. Add 5 μl of the Stop reagent to all wells • b. Shake the plate for 30 sec and centrifuge (1500 rpm, 1 min) • c. Measure the value of coumarin (Ex400 nm, Em445 nm) and fluorescein (Ex400 nm, Em520 nm), respectively. 5. Data Analysis Emission Ratio(ER)=Coumarin Emission (445 nm)/Fluorescein Emission (520 nm) % Phosphorylation=1−[ER×C3520nm−C3445nm]/[(C1445nm−C3445nm)+ER×(C3520nm−C1520nm)] Inhibition rate (IR)=1−% Photest Cpd% PhoC2 6. IC50 Value: determine IC50 with add-in software for Microsoft Excel, XLfit™ (version 2.0) from ID Business Solutions (Guildford, UK)

T1 sequence (P28482 whole entry): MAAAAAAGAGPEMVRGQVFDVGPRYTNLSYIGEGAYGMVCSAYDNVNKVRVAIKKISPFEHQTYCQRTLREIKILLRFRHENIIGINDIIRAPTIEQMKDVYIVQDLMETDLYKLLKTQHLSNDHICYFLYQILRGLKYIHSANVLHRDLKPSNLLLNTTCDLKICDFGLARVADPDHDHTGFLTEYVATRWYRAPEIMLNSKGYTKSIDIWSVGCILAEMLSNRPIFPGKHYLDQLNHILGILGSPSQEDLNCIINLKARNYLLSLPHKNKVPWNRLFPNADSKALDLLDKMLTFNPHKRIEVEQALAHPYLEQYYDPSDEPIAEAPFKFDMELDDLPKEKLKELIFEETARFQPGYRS

Compound	IC50 [1]	IC50 [2]
Cc1cnc(Nc2ccnn2C)cc1-c1cc2n(c1)CC1(CC1)Cn1c-2nnc1C(F)(F)C(F)(F)F [Compound 84]	> 100 nM	5 to 10 nM
COC1(c2nnc3n2[C@@H](CF)Cn2cc(-c4cc(Nc5ccnn5C)ncc4Cl)cc2-3)CCC1 [Compound 64]	> 100 nM	≤ 5 nM
Cc1c(-c2ccnc(Nc3ccnn3C)n2)cn2c1-c1nnc(C3(C(F)(F)F)CCC3)n1CCC2 [Compound 13]	> 100 nM	≤ 5 nM
C[C@H](Oc1ccccc1F)c1nnc2n1CC(C)(C)Cn1cc(-c3ccnc(Nc4ccnn4C)n3)cc1-2 [Compound 44, (S)-4-(3-(1-(2-fluorophenoxy)ethyl)-6,6-dimethyl-6,7-dihydro-5H-pyrrolo[1,2-a][1,2,4]triazolo[3,4-c][1,4]diazepin-10-yl)-N-(1-methyl-1H-pyrazol-5-yl)pyrimidin-2-amine]	> 100 nM	> 10 nM
Cn1nccc1Nc1ncc(F)c(-c2cc3n(c2)CCCn2c-3nnc2C2(C(F)(F)F)CCC2)n1 [Compound 285]	> 100 nM	≤ 5 nM
Cn1nccc1Nc1cc(-c2cc3n(c2)CC(F)(F)Cn2c-3nnc2C(F)(F)C(F)F)c(Cl)cn1 [Compound 113]	> 100 nM	5 to 10 nM
Cc1nonc1Cc1nnc2n1CCCn1cc(-c3cc(Nc4ccnn4C)ncc3Cl)cc1-2 [Compound 10]	> 100 nM	≤ 5 nM
Cn1nccc1Nc1nccc(-c2cc3n(c2)CCCn2c(CCc4ccccc4F)nnc2-3)n1 [Compound 1, 4-(3-(2-fluorophenethyl)-6,7-dihydro-5H-pyrrolo[1,2-a][1,2,4]triazolo[3,4-c][1,4]diazepin-10-yl)-N-(1-methyl-1H-pyrazol-5-yl)pyrimidin-2-amine]	> 100 nM	≤ 5 nM
Cn1nccc1Nc1cc(-c2cc3n(c2)C(C(F)F)Cn2c-3nnc2C(F)(F)C(F)F)c(Cl)cn1 (stereo not shown) [Compound 260]	> 100 nM	5 to 10 nM
Cc1cnc(Nc2ccnn2C)nc1-c1cc2c3nnc(C4(C(F)(F)F)CCC4)n3c(C)cn2c1 [Compound 236]	≤ 100 nM	≤ 5 nM
Cn1nccc1Nc1cc(-c2cc3n(c2)CCCn2c-3nnc2C2(C(F)F)CC2)c(Cl)cn1 [Compound 59]	≤ 100 nM	≤ 5 nM
Cc1cnc(Nc2ccnn2C)nc1-c1cc2n(c1)CCCn1c(COc3ccccc3F)nnc1-2 [Compound 17]	≤ 100 nM	≤ 5 nM
Cc1cnc(Nc2ccnn2C)cc1-c1cc2n(c1)CCn1c-2nnc1C(F)(F)c1ccccc1Cl [Compound 90]	≤ 100 nM	5 to 10 nM
Cn1nccc1Nc1nccc(-c2cc3n(c2)C[C@H](CF)n2c-3nnc2C(F)(F)n2cc(Cl)cn2)n1 [Compound 111]	> 100 nM	≤ 5 nM
C[C@H]1Cn2cc(-c3ccnc(Nc4ccnn4C)n3)cc2-c2nnc(C(F)(F)c3ccccc3Cl)n21 [Compound 95]	≤ 100 nM	5 to 10 nM
Cc1cnc(Nc2ccnn2C)cc1-c1cc2n(c1)C[C@H](CF)n1c-2nnc1C(F)(F)c1ccc(F)cc1F [Compound 184]	≤ 100 nM	5 to 10 nM
Cn1nccc1Nc1cc(-c2cc3n(c2)C[C@H](F)Cn2c-3nnc2C2(C(F)(F)F)CCC2)c(Cl)cn1 [Compound 123]	≤ 100 nM	≤ 5 nM
Cc1cnc(Nc2ccnn2C)nc1-c1cc2n(c1)CCn1c-2nnc1C(F)(F)c1ccccc1F [Compound 70]	≤ 100 nM	≤ 5 nM
Cc1cccnc1C(F)(F)c1nnc2n1[C@@H](CF)Cn1cc(-c3cc(Nc4ccnn4C)ncc3Cl)cc1-2 [Compound 175]	> 100 nM	≤ 5 nM
Cn1nccc1Nc1cc(-c2cc3n(c2)CC2(CC2)Cn2c-3nnc2C2(C(F)(F)F)CCC2)c(Cl)cn1 [Compound 268]	≤ 100 nM	≤ 5 nM
C[C@H]1Cn2cc(-c3cc(Nc4ccnn4C)ncc3Cl)cc2-c2nnc(C(F)(F)n3cc(F)cn3)n21 [Compound 108]	≤ 100 nM	≤ 5 nM
Cc1cnc(Nc2ccnn2C)cc1-c1cc2n(c1)C[C@H](C)n1c-2nnc1C(F)(F)c1ccccc1F [Compound 83]	≤ 100 nM	> 10 nM
Cc1cnc(Nc2ccnn2C(F)F)nc1-c1cn2c(n1)-c1nnc(C(F)(F)c3ccccc3F)n1[C@@H](C)C2 [Compound 226]	≤ 100 nM	≤ 5 nM

More lines, now with the values ahead:

IC50 [1]	IC50 [2]	Compound
≤ 100 nM	≤ 5 nM	Cc1cnc(Nc2ccnn2C)cc1-c1cc2n(c1)CC1(COC1)Cn1c-2nnc1C1(C(F)(F)F)CCC1 [Compound 306]
≤ 100 nM	5 to 10 nM	Cn1nccc1Nc1cc(-c2cc3n(c2)CC2(CC2)Cn2c-3nnc2C(F)(F)C(F)F)c(Cl)cn1 [Compound 93]
≤ 100 nM	5 to 10 nM	Cn1nccc1Nc1cc(-c2cc3n(c2)CCCn2c-3nnc2N2CCCc3ccccc32)c(Cl)cn1 [Compound 54]
≤ 100 nM	≤ 5 nM	Cc1cnc(Nc2ccnn2C)cc1-c1cc2n(c1)CC1(CC1)Cn1c-2nnc1C(F)(F)C(F)F [Compound 66]
≤ 100 nM	5 to 10 nM	Cc1cnc(Nc2ccnn2C)nc1-c1cc2n(c1)C[C@H](CF)n1c-2nnc1C(F)(F)c1ccc(F)cc1F [Compound 188]
≤ 100 nM	≤ 5 nM	Cc1c(-c2ccnc(Nc3ccnn3C)n2)cn2c1-c1nnc([C@H](C)Oc3ccccc3F)n1CCC2 [Compound 29]
≤ 100 nM	5 to 10 nM	Cn1nccc1Nc1nccc(-c2cc3n(c2)C[C@H](CF)n2c-3nnc2C(F)(F)c2ccccc2Cl)n1 [Compound 142]
≤ 100 nM	≤ 5 nM	Cn1nccc1Nc1cc(-c2cc3n(c2)C[C@H](CF)n2c-3nnc2C(F)(F)c2ncccc2F)c(Cl)cn1 [Compound 194]
≤ 100 nM	≤ 5 nM	Cn1nccc1Nc1nccc(-c2cc3n(c2)C[C@H](C(F)F)n2c-3nnc2C(F)(F)c2ccccc2F)n1 [Compound 149]
≤ 100 nM	≤ 5 nM	Cc1cn2cc(-c3ccnc(Nc4ccnn4C)n3)cc2c2nnc(C3(C(F)(F)F)CCC3)n12 [Compound 232]
≤ 100 nM	5 to 10 nM	Cn1nccc1Nc1cc(-c2cc3n(c2)C[C@H](C(F)F)n2c-3nnc2C(F)(F)c2ccccc2F)c(F)cn1 [Compound 196]
≤ 100 nM	≤ 5 nM	Cc1cnc(Nc2ccnn2C)cc1-c1cc2n(c1)CC(C)Cn1c-2nnc1C(F)(F)C(F)F (stereo not shown) [Compound 60]
